Broadly, the IC50 is the concentration that gives 50% inhibition.

For 13 compounds, IC50 results are on record in patent publication US20260176282A1, “BICYCLIC COMPOUNDS AS CDK INHIBITORS” (BEONE MEDICINES I GMBH, priority 2023, published 2026).

The test system of test [1] is HEK-293 cells. The experiment in a line: HEK-293 cell cytotoxicity detection (CellTiter-Glo). Conditions: incubation of 72 h, CellTiter-Glo luminescence. The format is cell-based. On the procedure:
HEK-293 cells were treated with compounds diluted in 0.4% DMSO, dilution was done according to the following protocol: (1) making 250× stock solution in DMSO from 10 mM by 4-fold dilution, total 8 doses were included; (2) making 2 solution in cell culture medium by transferring 1 μl 250× stock solution into 124 μl medium; (3) adding 50 μl of 2× solution to cells for incubation of 72 h.
25 μl of the CellTiter-Glo® Reagent [(PromegaCat #G9242)] was added to each well in the 96-well plate. The contents were mixed for 2 minutes on an orbital shaker to induce cell lysis. The plate was then allowed to incubate at room temperature for 10 minutes to stabilize luminescent signal. Luminescence was recorded on BMG PheraStar with luminescence protocol.
The IC50 value of a compound can be obtained by fitting the following equation: […]
Wherein, X and Y are known values, and IC50, Hillslope, Top and Bottom are the parameters obtained by fitting with software. Y is the inhibition percentage (calculated from the equation), X is the concentration of the compound; IC50 is the concentration of the compound when the 50% inhibition is reached. The smaller the IC50 value is, the stronger the inhibitory ability of the compound is. Vice versa, the higher the IC50 value is, the weaker the ability the inhibitory ability of the compound is; Hillslope represents the slope of the fitted curve, generally around 1*; Bottom represents the minimum value of the curve obtained by data fitting, which is generally 0%±20%; Top represents the maximum value of the curve obtained by data fitting, which is generally 100%±20%. The experimental data were fitted by calculating and analyzing with Dotmatics data analysis software.

The target of test [2] is CDK2/Cyclin E1 (Homo sapiens, UniProt P24941). The experiment in a line: CDK2/Cyclin E1 TR-FRET biochemical assay (1 mM ATP). To be noted: 90 minutes reaction. As for the experimental part:
(§1) Compounds disclosed herein were tested for inhibition of CDK2/Cyclin E1 or CDK1/Cyclin B1 kinase in an assay based on the time-resolved fluorescence-resonance energy transfer (TR-FRET) methodology. The assay was carried out in 384-well low volume black plates in a reaction mixture containing CDK2/Cyclin E1 or CDK1/Cyclin B1, 1 mM ATP for CDK2/Cyclin E1 and CDK1/Cyclin B1, 0.15 μM Rb (Ser780)-biotin substrate and 0-10 μM compound in buffer containing 50 mM HEPES pH7.0, 0.02% NaN3, 0.01% BSA, 0.1 mM Orthovanadate, 50 mM MgCl2, 1 mM DTT and 0.005% Tween-20. The kinase was incubated with compound for 60 minutes at room temperature and the reaction was initiated by the addition of ATP and Rb (Ser780)-biotin substrate. After reaction at room temperature for 90 minutes, an equal volume of stop/detection solution was added according to the manufacture's instruction (Cisbio Bioassays). The stop/detection solution contained Streptavidin-XL665 and Anti-pRb (Ser780) mAb-Eu Cryptate in Detection buffer (Cisbio Bioassays). Plates were incubated at room temperature for 60 minutes, and the TR-FRET signals (ex337 nm, em665 nm/620 nm) were recorded on a PHERAstar FSX plate reader (BMG Labtech). The inhibition percentage of CDK2/Cyclin E1 or CDK1/Cyclin B1 kinase activity in presence of increasing concentrations of compounds was calculated based on the ratio of fluorescence at 665 nm to that at 620 nm. The IC50 for each compound was derived from fitting the data to the four-parameter logistic equation by Dotmatics.

The target in test [3] is CDK1/Cyclin B1 (Homo sapiens, UniProt P06493). In words: CDK1/Cyclin B1 TR-FRET biochemical assay (1 mM ATP). To be noted: 90 minutes reaction. On the procedure: as §1
Sequence of CDK1/Cyclin B1 (P06493 whole entry): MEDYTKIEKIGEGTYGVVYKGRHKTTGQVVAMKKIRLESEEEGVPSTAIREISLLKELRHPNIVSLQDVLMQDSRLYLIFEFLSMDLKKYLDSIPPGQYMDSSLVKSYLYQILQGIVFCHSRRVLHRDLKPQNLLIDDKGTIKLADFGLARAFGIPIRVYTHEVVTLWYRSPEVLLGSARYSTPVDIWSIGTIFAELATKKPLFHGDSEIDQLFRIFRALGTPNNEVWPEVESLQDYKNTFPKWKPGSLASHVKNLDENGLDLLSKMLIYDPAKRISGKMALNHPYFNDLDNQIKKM
Sequence of CDK1/Cyclin B1 (P14635 whole entry partner): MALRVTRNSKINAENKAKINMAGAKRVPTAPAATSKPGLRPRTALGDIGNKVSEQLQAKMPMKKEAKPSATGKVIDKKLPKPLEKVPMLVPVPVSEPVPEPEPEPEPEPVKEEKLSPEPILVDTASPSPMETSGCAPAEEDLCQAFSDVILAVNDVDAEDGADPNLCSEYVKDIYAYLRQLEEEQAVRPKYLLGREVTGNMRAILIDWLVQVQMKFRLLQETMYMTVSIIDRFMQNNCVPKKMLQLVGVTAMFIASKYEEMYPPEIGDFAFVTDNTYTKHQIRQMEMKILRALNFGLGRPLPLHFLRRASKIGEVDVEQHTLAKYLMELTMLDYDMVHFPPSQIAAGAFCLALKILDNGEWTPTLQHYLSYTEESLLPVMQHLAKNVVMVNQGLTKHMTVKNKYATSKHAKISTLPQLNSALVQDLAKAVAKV

Molecules are shown by their SMILES. Like-named read-outs stand apart in the source and are kept apart here. A value given as a limit tells only on which side of the number the result lay.

On to `CC1(NC(=O)OC2CCC(c3cc(Nc4ccc5c(c4F)CS(=O)(=O)C5)n[nH]3)C2)CCOC1` (single isomer, unassigned) [Example 13b, cis-3-(3-((4-fluoro-2,2-dioxido-1,3-dihydrobenzo[c]thiophen-5-yl)amino)-1H-pyrazol-5-yl)cyclopentyl (3-methyltetrahydrofuran-3-yl)carbamate], for which the values for the half-inhibitory concentration (IC50) in test [1] (read-out: HEK293 IC50), in test [2] and in test [3] were 0.559 µM, 0.0006 µM and 0.353 µM, respectively.

As to `CC1(NC(=O)OC2CCC(c3cc(Nc4ccc5c(c4F)CS(=O)(=O)C5)n[nH]3)C2)CCOC1` (single isomer, unassigned) [Example 13c, cis-3-(3-((4-fluoro-2,2-dioxido-1,3-dihydrobenzo[c]thiophen-5-yl)amino)-1H-pyrazol-5-yl)cyclopentyl (3-methyltetrahydrofuran-3-yl)carbamate], the IC50 was 1.72 µM in test [1] (read-out: HEK293 IC50), 0.0005 µM in test [2] and 0.208 µM in test [3].

For `CC1(NC(=O)OC2CCC(c3cc(Nc4ccc5c(c4F)CS(=O)(=O)C5)n[nH]3)C2)CCOC1` (single isomer, unassigned) [Example 13d, cis-3-(3-((4-fluoro-2,2-dioxido-1,3-dihydrobenzo[c]thiophen-5-yl)amino)-1H-pyrazol-5-yl)cyclopentyl (3-methyltetrahydrofuran-3-yl)carbamate], the IC50 is 4.21 µM in test [1] (read-out: HEK293 IC50), 0.0009 µM in test [2] and 0.322 µM in test [3].

With `CC1(NC(=O)OC2CCC(c3cc(Nc4ccc5c(c4F)CS(=O)(=O)C5)n[nH]3)C2)COC1` (single isomer, unassigned) [Example 15a, cis-3-(3-((4-fluoro-2,2-dioxido-1,3-dihydrobenzo[c]thiophen-5-yl)amino)-1H-pyrazol-5-yl)cyclopentyl (3-methyloxetan-3-yl)carbamate], the half-maximal inhibitory concentration (IC50) in test [1] (Homo sapiens, HEK293, 72 h) is greater than 10 µM; in test [2], 0.0019 µM; in test [3] it was 1.09 µM.

Take `CC1(NC(=O)OC2CCC(c3cc(Nc4ccc5c(c4F)CS(=O)(=O)C5)n[nH]3)C2)COC1` (single isomer, unassigned) [Example 15b, cis-3-(3-((4-fluoro-2,2-dioxido-1,3-dihydrobenzo[c]thiophen-5-yl)amino)-1H-pyrazol-5-yl)cyclopentyl (3-methyloxetan-3-yl)carbamate]: the figures for the IC50 in test [1] (read-out: HEK293 IC50), in test [2] and in test [3] were 9.9 µM, 0.002 µM and 0.505 µM, respectively.

With `CCNC(=O)OC1CCC(c2cc(Nc3ccc4c(c3F)CS(=O)(=O)C4)n[nH]2)C1` (single isomer, unassigned) [Example 18a, cis-3-(3-((4-fluoro-2,2-dioxido-1,3-dihydrobenzo[c]thiophen-5-yl)amino)-1H-pyrazol-5-yl)cyclopentyl ethylcarbamate], the 50% inhibitory concentration (IC50) is greater than 10 µM in test [1] (read-out: HEK293 IC50), 0.0052 µM in test [2] and 1.3 µM in test [3].

For the compound `CCNC(=O)OC1CCC(c2cc(Nc3ccc4c(c3F)CS(=O)(=O)C4)n[nH]2)C1` (single isomer, unassigned) [Example 18b, cis-3-(3-((4-fluoro-2,2-dioxido-1,3-dihydrobenzo[c]thiophen-5-yl)amino)-1H-pyrazol-5-yl)cyclopentyl ethylcarbamate], the IC50 turned out to be 0.522 µM in test [1] (read-out: HEK293 IC50), 0.0052 µM in test [2] and 0.555 µM in test [3].

For the compound `O=C(NC1CCOC1)OC1CCC(c2cc(Nc3ccc4c(c3F)CS(=O)(=O)C4)n[nH]2)C1` (single isomer, unassigned) [Example 24a, cis-3-(3-((4-fluoro-2,2-dioxido-1,3-dihydrobenzo[c]thiophen-5-yl)amino)-1H-pyrazol-5-yl)cyclopentyl (tetrahydrofuran-3-yl)carbamate], the concentration for half-maximal inhibition (IC50) in test [1] (Homo sapiens, HEK293, 72 h) was greater than 10 µM; in test [2], 0.017 µM; in test [3], 4.73 µM.

For the compound `O=C(NC1CCOC1)OC1CCC(c2cc(Nc3ccc4c(c3F)CS(=O)(=O)C4)n[nH]2)C1` (single isomer, unassigned) [Example 24b, cis-3-(3-((4-fluoro-2,2-dioxido-1,3-dihydrobenzo[c]thiophen-5-yl)amino)-1H-pyrazol-5-yl)cyclopentyl (tetrahydrofuran-3-yl)carbamate], the values for the concentration for half-maximal inhibition (IC50) in test [1] (read-out: HEK293 IC50), in test [2] and in test [3] were greater than 10 µM, 0.061 µM and 7.87 µM, respectively.

Take `O=C(N[C@H]1CC[C@@H](O)CC1)OC1CCC(c2cc(Nc3ccc4c(c3F)CS(=O)(=O)C4)n[nH]2)C1` (stereo partly drawn) [Example 17, cis-3-(3-((4-fluoro-2,2-dioxido-1,3-dihydrobenzo[c]thiophen-5-yl)amino)-1H-pyrazol-5-yl)cyclopentyl ((1s,4s)-4-hydroxycyclohexyl)carbamate]: the IC50 amounted to 0.991 µM in test [1] (Homo sapiens, HEK293, 72 h); 0.0023 µM in test [2]; 0.824 µM in test [3].

In the case of `C[C@]1(O)CC[C@@H](NC(=O)OC2CCC(c3cc(Nc4ccc5c(c4F)CS(=O)(=O)C5)n[nH]3)C2)CC1` (stereo partly drawn) [Example 25, cis-3-(3-((4-fluoro-2,2-dioxido-1,3-dihydrobenzo[c]thiophen-5-yl)amino)-1H-pyrazol-5-yl)cyclopentyl ((1s,4s)-4-hydroxy-4-methylcyclohexyl)carbamate], the IC50 in test [1] (Homo sapiens, HEK293, 72 h) was determined as 1.13 µM; in test [2], 0.0018 µM; in test [3], 0.768 µM.

Consider `O=C(N[C@H]1CC[C@H](O)CC1)OC1CCC(c2cc(Nc3ccc4c(c3F)CS(=O)(=O)C4)n[nH]2)C1` (stereo partly drawn) [Example 26, cis-3-(3-((4-fluoro-2,2-dioxido-1,3-dihydrobenzo[c]thiophen-5-yl)amino)-1H-pyrazol-5-yl)cyclopentyl ((1r,4r)-4-hydroxycyclohexyl)carbamate], for which the concentration for half-maximal inhibition (IC50) in test [1] (Homo sapiens, HEK293, 72 h) turned out to be 0.998 µM; in test [2], 0.0015 µM; in test [3], 0.376 µM.

In the case of `C[C@]1(O)CC[C@H](NC(=O)OC2CCC(c3cc(Nc4ccc5c(c4F)CS(=O)(=O)C5)n[nH]3)C2)CC1` (stereo partly drawn) [Example 34, cis-3-(3-((4-fluoro-2,2-dioxido-1,3-dihydrobenzo[c]thiophen-5-yl)amino)-1H-pyrazol-5-yl)cyclopentyl ((1r,4r)-4-hydroxy-4-methylcyclohexyl)carbamate], the IC50 in test [1] (Homo sapiens, HEK293, 72 h) was determined as 1.43 µM; in test [2] it was 0.0011 µM; in test [3] it was 1.18 µM.
